{"source": "patent US20250171744A1", "about": "“METHODS OF REPROGRAMMING SOMATIC CELLS AND MATERIALS RELATED THERETO” (CITY OF HOPE, priority 2019, published 2025)", "system": "FPGS^ko cells", "experiment": "Chemical complementation (nutrient supplementation) of FPGS mutants (FIG. 14)", "type": "cell-based, human", "method": "The growth medium was supplemented with 1 and 2× essential amino acids (EAAs), and cells were grown for […] (A2-A3). Additionally, to check the growth behavior of the mutant in a different basal medium, regular DMEM and IMDM with 1×NEAAs were tested. To rescue the phenotype of FPGS^ko, 5-CHO-THF (1 mM) with sodium hypoxanthine (10 mM) and thymidine (1.6 mM) mixture (HT; Thermo Fisher Scientific) was exogenously applied to IMDM, respectively (A5, A6), and compared with the FPGS^ko cells (A1) and WT cells […] grown with only solvent as a control. […] All the experiments were carried out in triplicate and cell proliferation was measured using a Cellometer. The number of cells for each cell line is compared with the number of colonies for parental 293T cells. Error bars indicate means±SE (n=4). *P<0.05, **P<0.001.\nChemical complementation assays of FPGS mutants: Cells were maintained as monolayers in DMEM with Gluta-Max (Corning) supplemented with 10% FBS at 37° C. in a 5% CO2 atmosphere. To supplement the growth medium with amino acids, 1× and 2× doses of essential amino acids (Thermo Fisher Scientific) were added in the medium and the cells were grown as previously described for 5 days. […] All the experiments were carried out in triplicate, and cell proliferation was measured using a Cellometer Auto T4 Counting Chamber (Nexcelom Bioscience, Lawrence, MA, USA). […]", "data": [{"compound": "Nc1nc2c(c(=O)[nH]1)N(C=O)[C@@H](CNc1ccc(C(=O)N[C@@H](CCC(=O)O)C(=O)O)cc1)CN2", "note": "[5-CHO-THF, 6S-5-formyl-5,6,7,8-tetrahydrofolic acid]", "values": [{"measurement": "cell growth of FPGS^ko mutant", "setting": "IMDM supplemented with 1 mM 5-CHO-THF and 1×NEAAs", "value": "substantial increases in cell growth"}, {"measurement": "growth rate of FPGS^ko mutant", "setting": "IMDM with 1 mM 5-CHO-THF, 1×NEAAs, hypoxanthine (10 mM) and thymidine (1.6 mM)", "value": "almost full restoration of growth rate"}]}]}
